Patent publication US20040028734A1, “Use of anti-muscarinic agents and calcium channel blockers in combination” (priority 2000, published 2004)
Read-outs that look alike come from different tables or passages of the source.

Key:
T lymphocytes = conditions: cited from earlier work
[1] = Frey's syndrome, single dermal application; cited from earlier work
[2] = test system: Guinea pig tracheal strip preparations; experiment: tissue or blood; conditions: Cavia porcellus, 5 min
Description: Guinea pig tracheal strip preparations were pre-contracted with 5×10^−6 M carbachol for 10 minutes, to induce tone, before incubation with drug. […] Relaxation is expressed as % maximal relaxation induced by 5×10^−4 M papaverine after completion of concentration-response curves. […]

[3] = test system: Guinea pig tracheal strip preparations; experiment: tissue or blood; conditions: for % Relaxation: % maximal of carbachol-induced tone, DRC to verapamil
Description: Again, guinea pig tracheal strip preparations were pre-contracted with 5×10^−6 M carbachol for 10 minutes before incubation with the pre-treatment drug. The relaxation (% maximal of carbachol-induced tone) induced by the pre-treatment is shown in FIG. 2, for the following groups.

[4] = clinical level, compared with ipratropium; cited from earlier work

SMILES: CN1[C@@H]2CC[C@H]1C[C@@H](OC(=O)C(CO)c1ccccc1)C2 (some centres unmarked) [atropine, Atropine]
- effect on acetylcholine-mediated enhanced T lymphocyte proliferation (T lymphocytes): abolishes this effect completely

SMILES: C[N+]1(C)CCC(OC(=O)C(O)(c2ccccc2)C2CCCC2)C1 (centres unmarked) [glycopyrrolate]
- duration of action [1]: two day
- EC50 [2]: 9.23 nM
- EC50 ([2]; read-out: -Log EC50 (converted)): 9.12 nM
- % Relaxation ([3]; Group B, pre-treatment 4 × 10^−9 M): 6.5 ± 0.8%
- % Relaxation ([3]; Group C, pre-treatment 4 × 10^−10 M): −0.7 ± 1.4%
- duration of action in muscarinic antagonism [4]: longer duration of action in muscarinic antagonism than ipratropium

SMILES: COc1ccc(CCN(C)CCCC(C#N)(c2ccc(OC)c(OC)c2)C(C)C)cc1OC (centres unmarked) [verapamil]
- EC50 ([3]; Cavia porcellus): 5000 nM
